Reference: PubChem BioAssay AID330 (DTP/NCI, 2004)
Where “and” joins values, the source holds several entries; their conditions need not be identical. Equal values may be shown once. Toxic doses and inconclusive results are not listed.

Test system: P388 leukemia ip, CD2F1 mice, survival T/C
Assay: NCI In Vivo Anticancer Drug Screen. Data for tumor model P388 Leukemia (intraperitoneal) in CD2F1 (CDF1) mice
Conditions: endpoint: median survival time, higher = longer survival
Summary of the method: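 Mice carrying the transplanted tumor received test compound or vehicle. Survival was recorded in each group, and the value is the treated-group measurement divided by that of the vehicle-treated control group.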

[1] = dose: 50.0 mg/kg/injection, schedule: Q01DX005 (ip), vehicle: Klucel (hydroxypropylcellulose) (HPC)
[2] = dose: 100.0 mg/kg/injection, schedule: Q01DX005 (ip), vehicle: Klucel (hydroxypropylcellulose) (HPC)
[3] = dose: 200.0 mg/kg/injection, schedule: Q01DX005 (ip), vehicle: Klucel (hydroxypropylcellulose) (HPC)
[4] = dose: 50.0 mg/kg/injection, schedule: Q01DX005 (ip), vehicle: saline with Tween-80
[5] = dose: 50.0 mg/kg/injection, schedule: Q01DX009 (ip), vehicle: saline
[6] = dose: 100.0 mg/kg/injection, schedule: Q01DX009 (ip), vehicle: saline
[7] = dose: 50.0 mg/kg/injection, schedule: Q01DX009 (ip), vehicle: saline with Tween-80
[8] = dose: 100.0 mg/kg/injection, schedule: Q01DX009 (ip), vehicle: saline with Tween-80
[9] = dose: 200.0 mg/kg/injection, schedule: Q01DX009 (ip), vehicle: saline with Tween-80
[10] = dose: 60.0 mg/kg/injection, schedule: Q01DX005 (ip), vehicle: Klucel (hydroxypropylcellulose) (HPC)
[11] = dose: 120.0 mg/kg/injection, schedule: Q01DX005 (ip), vehicle: Klucel (hydroxypropylcellulose) (HPC)
[12] = dose: 60.0 mg/kg/injection, schedule: Q01DX005 (ip), vehicle: saline with Tween-80
[13] = dose: 120.0 mg/kg/injection, schedule: Q01DX005 (ip), vehicle: saline with Tween-80

Structure (SMILES): [NH-][n+]1c2c(nc3ccccc31)-c1cccc3cccc-2c13
- T/C [1]: 103 % of control
- T/C (dose: 100.0 mg/kg/injection, schedule: Q01DX001 (ip), vehicle: Klucel (hydroxypropylcellulose) (HPC)): 97 % of control
- T/C [2]: 112 % of control
- T/C (dose: 200.0 mg/kg/injection, schedule: Q01DX001 (ip), vehicle: Klucel (hydroxypropylcellulose) (HPC)): 100 % of control
- T/C [3]: 105 % of control
- T/C (dose: 400.0 mg/kg/injection, schedule: Q01DX001 (ip), vehicle: Klucel (hydroxypropylcellulose) (HPC)): 102 % of control

Structure (SMILES): Cc1nc2sc3c(c2c(=N)n1N)CCCC3
- T/C (dose: 12.5 mg/kg/injection, schedule: Q01DX001 (ip), vehicle: Klucel (hydroxypropylcellulose) (HPC)): 103 % of control
- T/C (dose: 25.0 mg/kg/injection, schedule: Q01DX001 (ip), vehicle: Klucel (hydroxypropylcellulose) (HPC)): 97 % of control

Structure (SMILES): O=C(NC(Cc1ccc(O)cc1)C(=O)O)c1ccccc1 (stereo not drawn)
- T/C [4]: 99 % of control
- T/C (dose: 100.0 mg/kg/injection, schedule: Q01DX005 (ip), vehicle: saline with Tween-80): 100 % of control
- T/C (dose: 200.0 mg/kg/injection, schedule: Q01DX005 (ip), vehicle: saline with Tween-80): 88 % of control

Structure (SMILES): C(C#CCN1CCOCC1)#CCN1CCOCC1
- T/C (dose: 50.0 mg/kg/injection, schedule: Q01DX009 (ip), vehicle: Klucel (hydroxypropylcellulose) (HPC)): 109 % of control and 89 % of control
- T/C (dose: 100.0 mg/kg/injection, schedule: Q01DX009 (ip), vehicle: Klucel (hydroxypropylcellulose) (HPC)): 101 % of control and 89 % of control
- T/C (dose: 200.0 mg/kg/injection, schedule: Q01DX009 (ip), vehicle: Klucel (hydroxypropylcellulose) (HPC)): 101 % of control and 93 % of control
- T/C (dose: 400.0 mg/kg/injection, schedule: Q01DX009 (ip), vehicle: Klucel (hydroxypropylcellulose) (HPC)): 98 % of control

Structure (SMILES): c1ccc2c3c([nH]c2c1)CN1CCCCC1C3 (stereo not drawn)
- T/C (dose: 6.25 mg/kg/injection, schedule: Q01DX005 (ip), vehicle: Klucel (hydroxypropylcellulose) (HPC)): 92 % of control
- T/C (dose: 12.5 mg/kg/injection, schedule: Q01DX005 (ip), vehicle: Klucel (hydroxypropylcellulose) (HPC)): 92 % of control
- T/C (dose: 25.0 mg/kg/injection, schedule: Q01DX005 (ip), vehicle: Klucel (hydroxypropylcellulose) (HPC)): 93 % of control
- T/C [1]: 99 % of control
- T/C [2]: 96 % of control
- T/C [3]: 112 % of control

Structure (SMILES): COc1c2c(c(Cc3c4c(c(OC)c5c3OCO5)OC(C)C4)c3c1OCO3)CC(C)O2 (stereo not drawn)
- T/C (dose: 12.5 mg/kg/injection, schedule: Q01DX005 (ip), vehicle: saline with Tween-80): 96 % of control
- T/C (dose: 25.0 mg/kg/injection, schedule: Q01DX005 (ip), vehicle: saline with Tween-80): 94 % of control
- T/C [4]: 89 % of control and 95 % of control

Structure (SMILES): Clc1nccc2c1ncn2[Te]n1cnc2c(Cl)nccc21
- T/C (dose: 12.5 mg/kg/injection, schedule: Q04DX002 (ip), vehicle: saline): 105 % of control
- T/C (dose: 25.0 mg/kg/injection, schedule: Q04DX002 (ip), vehicle: saline): 103 % of control

Structure (SMILES): COc1ccccc1C1COC(c2ccccc2)(c2ccccc2)S1 (stereo not drawn)
- T/C (dose: 25.0 mg/kg/injection, schedule: Q01DX009 (ip), vehicle: saline): 108 % of control
- T/C [5]: 108 % of control
- T/C [6]: 108 % of control

Structure (SMILES): Cc1ccc(S(=O)(=O)OCCN2CC2)cc1
- T/C [7]: 94 % of control
- T/C [8]: 89 % of control
- T/C [9]: 99 % of control

Structure (SMILES): CCCNCC(O)COc1ccc2c3c(c(=O)oc2c1)CCC3 (stereo not drawn)
- T/C [10]: 96 % of control
- T/C [11]: 96 % of control

Structure (SMILES): COc1ccccc1NC(=O)CC(=O)N1N=C(C)C(N=Nc2cccc(C(=O)O)c2)C1=O (stereo not drawn)
- T/C [12]: 98 % of control
- T/C [13]: 98 % of control

Structure (SMILES): [Cl][Pt+2][Cl].[NH-]C(c1ccccc1)C([NH-])c1ccccc1 (stereo not drawn)
- T/C (dose: 1.56 mg/kg/injection, schedule: Q04DX002 (ip), vehicle: saline with Tween-80): 112 % of control
- T/C (dose: 3.12 mg/kg/injection, schedule: Q04DX002 (ip), vehicle: saline with Tween-80): 103 % of control
- T/C (dose: 3.13 mg/kg/injection, schedule: Q04DX002 (ip), vehicle: saline with Tween-80): 111 % of control
- T/C (dose: 6.25 mg/kg/injection, schedule: Q04DX002 (ip), vehicle: saline with Tween-80): 117 % of control [middle of 4 runs]

Structure (SMILES): CC(=O)c1c(C)[nH]c(-c2ccccc2)c1NS(=O)(=O)c1ccc(N)cc1
- T/C [12]: 98 % of control
- T/C [13]: 91 % of control

Structure (SMILES): O=C(Nc1cccc2c1C(=O)c1cccc(NC(=O)c3ccc(C(=O)Nc4cccc5c4C(=O)c4cccc(NC(=O)c6ccccc6)c4C5=O)cc3)c1C2=O)c1ccccc1
- T/C [7]: 100 % of control
- T/C [8]: 94 % of control
- T/C [9]: 93 % of control

Structure (SMILES): CC1(C)C(=O)OC(n2cc(F)c(=O)[nH]c2=O)C1=O (stereo not drawn)
- T/C (dose: 11.25 mg/kg/injection, schedule: Q04DX002 (ip), vehicle: distilled water + Tween-80): 105 % of control
- T/C (dose: 22.5 mg/kg/injection, schedule: Q04DX002 (ip), vehicle: distilled water + Tween-80): 105 % of control
- T/C (dose: 45.0 mg/kg/injection, schedule: Q04DX002 (ip), vehicle: distilled water + Tween-80): 116 % of control
- T/C (dose: 45.0 mg/kg/injection, schedule: Q04DX002 (ip), vehicle: saline with Tween-80): 110 % of control
- T/C (dose: 90.0 mg/kg/injection, schedule: Q04DX002 (ip), vehicle: distilled water + Tween-80): 116 % of control
- T/C (dose: 360.0 mg/kg/injection, schedule: Q04DX002 (ip), vehicle: distilled water + Tween-80): 90 % of control
- T/C (dose: 360.0 mg/kg/injection, schedule: Q04DX002 (ip), vehicle: saline with Tween-80): 160 % of control

Structure (SMILES): O=c1[nH]nc(-c2ccccc2)c2c(/C=C/c3ccccc3)onc12
- T/C [12]: 100 % of control
- T/C [13]: 98 % of control

Structure (SMILES): Clc1ccccc1C(Nc1ncccn1)Nc1ncccn1
- T/C [1]: 93 % of control
- T/C [2]: 93 % of control
- T/C [3]: 96 % of control

Structure (SMILES): CCOC(=O)/C=C1\CCC(C)n2c1nccc2=O (stereo not drawn)
- T/C [12]: 97 % of control
- T/C [13]: 101 % of control
- T/C (dose: 240.0 mg/kg/injection, schedule: Q01DX005 (ip), vehicle: saline with Tween-80): 98 % of control

Structure (SMILES): COC(=O)c1c(C)cc(OC(=O)c2c(C)cc(O)c(C=O)c2O)c(C)c1O
- T/C (dose: 0.25 mg/kg/injection, schedule: Q01DX009 (ip), vehicle: saline with Tween-80): 104 % of control
- T/C (dose: 0.5 mg/kg/injection, schedule: Q01DX009 (ip), vehicle: saline with Tween-80): 92 % of control
- T/C (dose: 1.0 mg/kg/injection, schedule: Q01DX009 (ip), vehicle: saline with Tween-80): 104 % of control
- T/C [5]: 95 % of control
- T/C [6]: 90 % of control
- T/C (dose: 200.0 mg/kg/injection, schedule: Q01DX009 (ip), vehicle: saline): 95 % of control

Structure (SMILES): O=C1CC(c2ccc([N+](=O)[O-])cc2)O1 (stereo not drawn)
- T/C (dose: 100.0 mg/kg/injection, schedule: Q01DX001 (ip), vehicle: saline): 101 % of control
- T/C (dose: 200.0 mg/kg/injection, schedule: Q01DX001 (ip), vehicle: saline): 104 % of control
- T/C (dose: 400.0 mg/kg/injection, schedule: Q01DX001 (ip), vehicle: saline): 102 % of control

Structure (SMILES): CCCCCCC(=O)/C=C/c1ccccc1OC(=O)/C=C/c1ccccc1
- T/C (dose: 50.0 mg/kg/injection, schedule: Q01DX005 (ip), vehicle: saline + alcohol): 96 % of control
- T/C (dose: 100.0 mg/kg/injection, schedule: Q01DX005 (ip), vehicle: saline + alcohol): 92 % of control

Structure (SMILES): O=c1[nH]cnc2nc(SCc3ccc([N+](=O)[O-])cc3)[nH]c12
- T/C [10]: 105 % of control
- T/C [11]: 102 % of control
- T/C (dose: 240.0 mg/kg/injection, schedule: Q01DX005 (ip), vehicle: Klucel (hydroxypropylcellulose) (HPC)): 108 % of control

Structure (SMILES): CCC(C)/[N+]([O-])=N\O (stereo not drawn)
- T/C (dose: 3.0 mg/kg/injection, schedule: Q01DX005 (ip), vehicle: Klucel (hydroxypropylcellulose) (HPC)): 98 % of control
- T/C (dose: 6.0 mg/kg/injection, schedule: Q01DX005 (ip), vehicle: Klucel (hydroxypropylcellulose) (HPC)): 91 % of control
- T/C (dose: 12.0 mg/kg/injection, schedule: Q01DX005 (ip), vehicle: Klucel (hydroxypropylcellulose) (HPC)): 100 % of control
- T/C (dose: 24.0 mg/kg/injection, schedule: Q01DX005 (ip), vehicle: Klucel (hydroxypropylcellulose) (HPC)): 97 % of control
